Results reported in paper PMC3046181, “Elimination of Endogenous Toxin, Creatinine from Blood Plasma Depends on Albumin Conformation: Site Specific Uremic Toxicity & Impaired Drug Binding” (PLoS ONE, 2011).

Target: T1, Human serum albumin (HSA) (Homo sapiens, UniProt P02768)
T1 construct: gene ALB; commercial native serum albumin (Sigma), essentially fatty acid free and globulin free; monomer
Assay: isothermal titration calorimetry, single set of identical sites
Format: binding
Settings: read-out: Ka[M^-1] / ITC ^a (converted)
From the text: isothermal titration calorimetry, single set of identical sites on Human serum albumin (HSA)

T1 sequence (P02768 25-609): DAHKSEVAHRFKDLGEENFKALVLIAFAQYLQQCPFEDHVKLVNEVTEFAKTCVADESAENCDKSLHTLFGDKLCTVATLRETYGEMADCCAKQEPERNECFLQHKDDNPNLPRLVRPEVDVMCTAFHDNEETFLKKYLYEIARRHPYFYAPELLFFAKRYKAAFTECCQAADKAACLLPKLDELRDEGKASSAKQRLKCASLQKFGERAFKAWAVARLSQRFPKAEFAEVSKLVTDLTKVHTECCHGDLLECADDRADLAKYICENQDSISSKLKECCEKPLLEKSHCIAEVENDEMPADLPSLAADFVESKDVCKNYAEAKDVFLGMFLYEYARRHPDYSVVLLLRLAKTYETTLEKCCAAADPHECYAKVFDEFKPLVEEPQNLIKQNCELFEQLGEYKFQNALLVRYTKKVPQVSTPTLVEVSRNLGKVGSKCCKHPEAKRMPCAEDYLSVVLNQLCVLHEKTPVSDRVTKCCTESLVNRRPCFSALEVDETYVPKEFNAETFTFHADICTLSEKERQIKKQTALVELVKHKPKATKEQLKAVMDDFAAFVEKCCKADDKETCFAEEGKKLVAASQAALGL

SMILES: CN1CC(=O)NC1=N [creatinine, 2-Amino-1-methyl-5H-imidazol-4-one]
- Kd: 11.2 µM
